Here are results for one compound from article PMC6273578, “Design, Synthesis and Biological Evaluation of Benzohydrazide Derivatives Containing Dihydropyrazoles as Potential EGFR Kinase Inhibitors” (Molecules, 2016).

Broadly, the IC50 is the midpoint of a concentration-inhibition curve. The melting point is the temperature of the solid-liquid transition. The term CC50 denotes the concentration at which the toxic effect on the cells reaches its halfway point. Low values mean harm at low concentration, high ones better tolerance by the cells.

Molecules are shown by their SMILES.

Data set [1] deals with epidermal growth factor receptor (EGFR) (Homo sapiens, UniProt P00533). Kind of data set: EGFR kinase inhibition, solid-phase ELISA assay.
Procedure: All these newly synthesized compounds were evaluated for their inhibitory activities against EGFR kinases using a solid-phase ELISA assay.
EGFR tyrosine kinase activity was determined by an enzyme linked-immunosorbent assay (ELISA) in 96-well plates precoated in a 10 mL reaction volume including 4 mL diluted test compounds, 4 mL substrate and 2 mL ATP. […] The plates were then aspirated and washed twice with 200 mL 0.9% (w/v) NaCl, and incorporation of Pi was determined with an LX300 Epson Diagnostic microplate reader. […] The experiments were replicated at least three times to verify the methodology reproducibility when using the above-mentioned conditions.
The next data set concerns HepG2 cells. The data set is described as follows: MTT antiproliferative assay, HepG2. The data set is classed as cell-based, human. Conditions: Homo sapiens, read-out: In vitro antiproliferative activity IC50, HepG2.
For another data set, the system named is MCF-7 cells. Kind of data set: MTT antiproliferative assay, MCF-7. Format: cell-based, human. The conditions noted are these: Homo sapiens, MCF7, read-out: In vitro antiproliferative activity IC50, MCF-7. A general note: Formazan colour is commonly taken as a measure of viable cells.
Data set [2] relates to HeLa cells. The data set is described as follows: Cell apoptosis assay by flow cytometry (Annexin V-FITC/PI). The data set is classed as cell-based, human. Conditions: 24 h. As for the experimental part:
To verify whether the inhibition of cell growth of HeLa cell lines was related to cell apoptosis, we decided to use flow cytometry with an Annexin V-FITC/PI Apoptosis Detection Kit to […] the HeLa cell apoptosis with compound H20.
For Annexin V/PI assays, HeLa cells were stained with Annexin VFITC and PI and then monitored for apoptosis by flow cytometry. Briefly, 5 × 10^3 cells were seeded in 6-well plates for 24 h and then were treated with H20 (2.0, 4.0, 6.0, 8.0 μM) for 24 h. Then, cells were collected and washed twice with PBS and stained with 5 μL Annexin V-FITC and 5 μL PI (5 μg/mL) in 1× binding buffer (10 mM HEPES, pH 7.4, 140 mM […], 2.5 mM CaCl2) for 15 min at room temperature in the dark. Apoptotic cells were quantified using a BD Accuri C6 Flow Cytometer (Becton, Dickinson and Company, Clifton, NJ, USA). Statistical analysis was done using Flowjo 7.6.1 software. Both early apoptotic (AnnexinV-positive, PI-negative) and late apoptotic (double positive of Annexin V and PI) cells were detected.
For orientation: Flow cytometry measures light scatter and fluorescence of single cells or particles in a stream.

For the next data set, the system named is A549 cells. Kind of data set: MTT antiproliferative assay, A549. The data set is classed as cell-based, human. Conditions: Homo sapiens, read-out: In vitro antiproliferative activity IC50, A549.
Data set [3] relates to HeLa cells. Kind of data set: MTT antiproliferative assay, HeLa. The data set is classed as cell-based, human. The conditions noted are these: Homo sapiens, read-out: In vitro antiproliferative activity IC50, HeLa.
The nature of data set [4]: Cytotoxicity test (MTT) on 293T cells. The conditions noted are these: human, 293T human kidney epithelial cells. As for the experimental part:
The cytotoxic activity in vitro was measured by the colorimetric MTT assay. […] For the cytotoxicity assay, 20 μL of MTT (5 mg/mL) was added per well 4 h before the end of the incubation. After removing the supernatant, 200 μL DMSO was added to dissolve the formazan crystals. The absorbance at λ 570 nm was read on an LX300 Epson Diagnostic microplate reader, untreated cells were used as negative controls.

Chain of epidermal growth factor receptor (EGFR) (P00533 25-1210): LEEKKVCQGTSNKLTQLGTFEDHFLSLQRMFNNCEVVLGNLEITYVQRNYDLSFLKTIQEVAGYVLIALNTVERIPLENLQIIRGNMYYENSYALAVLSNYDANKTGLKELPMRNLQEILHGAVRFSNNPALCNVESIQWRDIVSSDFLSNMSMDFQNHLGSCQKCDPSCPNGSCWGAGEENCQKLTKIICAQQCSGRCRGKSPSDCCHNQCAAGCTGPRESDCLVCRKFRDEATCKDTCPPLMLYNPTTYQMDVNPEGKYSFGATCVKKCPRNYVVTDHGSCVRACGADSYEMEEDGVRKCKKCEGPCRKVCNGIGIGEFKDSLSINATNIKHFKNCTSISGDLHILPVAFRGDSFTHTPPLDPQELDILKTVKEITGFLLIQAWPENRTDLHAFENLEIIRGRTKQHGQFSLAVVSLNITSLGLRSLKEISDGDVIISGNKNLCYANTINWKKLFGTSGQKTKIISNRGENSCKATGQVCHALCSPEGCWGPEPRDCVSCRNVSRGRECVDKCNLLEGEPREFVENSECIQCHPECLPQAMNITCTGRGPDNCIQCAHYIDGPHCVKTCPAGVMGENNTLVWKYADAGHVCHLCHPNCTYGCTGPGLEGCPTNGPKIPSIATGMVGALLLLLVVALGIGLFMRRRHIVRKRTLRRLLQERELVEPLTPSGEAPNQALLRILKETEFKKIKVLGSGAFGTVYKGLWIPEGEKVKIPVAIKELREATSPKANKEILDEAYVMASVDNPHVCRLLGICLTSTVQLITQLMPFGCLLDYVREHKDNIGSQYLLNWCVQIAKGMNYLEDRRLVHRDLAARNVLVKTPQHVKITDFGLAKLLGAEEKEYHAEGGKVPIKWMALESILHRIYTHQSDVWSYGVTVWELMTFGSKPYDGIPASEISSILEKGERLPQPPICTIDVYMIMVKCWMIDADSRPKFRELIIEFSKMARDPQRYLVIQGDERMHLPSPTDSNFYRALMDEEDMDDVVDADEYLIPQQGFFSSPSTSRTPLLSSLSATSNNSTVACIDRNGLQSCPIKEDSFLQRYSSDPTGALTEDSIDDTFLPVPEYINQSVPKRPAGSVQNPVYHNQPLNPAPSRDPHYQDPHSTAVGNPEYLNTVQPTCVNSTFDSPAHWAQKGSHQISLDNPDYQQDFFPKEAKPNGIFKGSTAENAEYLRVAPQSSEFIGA

Take `COc1ccc(/C=N/NC(=O)c2ccc(N3N=C(c4ccc(C)cc4)CC3c3ccc4ccccc4c3)cc2)cc1` (centres unmarked) [Compound H20, (E)-N′-(4-Methoxybenzylidene)-4-(5-(naphthalen-2-yl)-3-(p-tolyl)-4,5-dihydro-1H-pyrazol-1-yl)benzo-hydrazide]: the melting point is 241 to 243 °C. The compound further returned an IC50 in data set [1] of 80 nM. Further, the IC50 with HepG2 cells came to 210 nM. Further, in the data set with MCF-7 cells, the IC50 was 290 nM. Further, in the data set on HeLa cells [2] (2.0 μM), the “percentage of cell apoptosis” value amounted to 28.7%. For the same compound, in the data set with HeLa cells [2] (4.0 μM), the “percentage of cell apoptosis” value came out at 34.9%. For the same compound, the “percentage of cell apoptosis” value in the data set on HeLa cells [2] (6.0 μM) was found to be 47.2%. Moreover, the “percentage of cell apoptosis” value with HeLa cells [2] (8.0 μM) came out at 58.12%. Besides, in the data set on A549 cells, the IC50 stood at 460 nM. Also, the IC50 in the data set with HeLa cells [3] was determined as 150 nM. Besides, the CC50 at 24 h in data set [4] turned out to be 89900 nM.
